The assay addresses T1, human P2X4 (Homo sapiens, UniProt Q99571).
T1 sequence (Q99571 1-388): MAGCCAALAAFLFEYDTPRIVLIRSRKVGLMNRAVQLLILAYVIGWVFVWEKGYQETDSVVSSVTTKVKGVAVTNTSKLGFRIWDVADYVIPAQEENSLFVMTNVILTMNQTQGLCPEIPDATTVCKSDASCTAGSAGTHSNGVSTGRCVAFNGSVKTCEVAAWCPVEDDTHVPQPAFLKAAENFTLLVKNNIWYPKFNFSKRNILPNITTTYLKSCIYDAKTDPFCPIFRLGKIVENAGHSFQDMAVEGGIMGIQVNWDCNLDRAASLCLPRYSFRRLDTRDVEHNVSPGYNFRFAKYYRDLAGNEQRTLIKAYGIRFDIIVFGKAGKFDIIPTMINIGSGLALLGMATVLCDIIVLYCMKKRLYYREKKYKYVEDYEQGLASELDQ
The assay is described as follows: Human P2X4 HEK Cell FLIPR Assay. It is filed as cell-based. As to conditions: agonist Bz-ATP at EC80; for Emax: HEK293, HEK293 cells, percentage of maximal inhibition, read-out: Human P2X4 HEK Cells (FLIPR Assay) avg Efficacy [%]; for IC50: HEK293 cells, individual values listed where some fall outside detection range. The method, boiled down: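 HEK293 cells stably expressing human P2X4, Fluo8-AM loaded 30 min at 37° C, then compound 30 min at room temperature (0.5% DMSO, pH 7.4 buffer with 1.8 mM CaCl2). Bz-ATP at its daily-determined EC80 added; calcium fluorescence read over 120 sec; IC50 from peak RFU normalized to agonist control, triplicates.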

A word on the IC50: it is the point on the concentration scale where inhibition reaches its midpoint. Read a high IC50 as lower potency.

`COc1ncn(-c2ccc(NC(=O)Cc3ccccc3Cl)cc2S(N)(=O)=O)n1` [Example 249, 2-(2-Chlorophenyl)-N-[4-(3-methoxy-1H-1,2,4-triazol-1-yl)-3-sulfamoylphenyl]-acetamide]: the Emax was 72% and the IC50 amounted to 8460 nM.
The like results for `NS(=O)(=O)c1cc(NC(=O)Cc2ccccc2Cl)ccc1-n1cnc(C2CC2)c1` [Example 250, 2-(2-Chlorophenyl)-N-[4-(4-cyclopropyl-1H-imidazol-1-yl)-3-sulfamoylphenyl]-acetamide] were, in that order, 82% and 193 nM.
Take `Cc1cn(-c2ccc(NC(=O)Cc3ccccc3Cl)cc2S(N)(=O)=O)cn1` [Example 251, 2-(2-Chlorophenyl)-N-[4-(4-methyl-1H-imidazol-1-yl)-3-sulfamoylphenyl]acetamide]: the Emax worked out at 96% and the IC50 is 21 nM.
The like results for `NS(=O)(=O)c1cc(NC(=O)Cc2ccccc2Cl)ccc1-n1ccc(C2CC2)n1` [Example 252, 2-(2-Chlorophenyl)-N-[4-(3-cyclopropyl-1H-pyrazol-1-yl)-3-sulfamoylphenyl]-acetamide] were, in that order, 88% and 808 nM.
With `NS(=O)(=O)c1cc(NC(=O)Cc2ccccc2Cl)ccc1-n1cc2cccnc2n1` [Example 253, 2-(2-Chlorophenyl)-N-[4-(2H-pyrazolo[3,4-b]pyridin-2-yl)-3-sulfamoylphenyl]-acetamide], the Emax is 85% and the IC50 is 257 nM.
On to `NS(=O)(=O)c1cc(NC(=O)Cc2ccccc2Cl)ccc1-n1cc2ccncc2n1` [Example 254, 2-(2-Chlorophenyl)-N-[4-(2H-pyrazolo[3,4-c]pyridin-2-yl)-3-sulfamoylphenyl]-acetamide], for which the Emax was 102% and the IC50 came to 41 nM.
For `NS(=O)(=O)c1cc(NC(=O)Cc2ccccc2Cl)ccc1-n1cc2ncccc2n1` [Example 255, 2-(2-Chlorophenyl)-N-[4-(2H-pyrazolo[4,3-b]pyridin-2-yl)-3-sulfamoylphenyl]-acetamide], in that order: 81% and 25 nM.
For `COCCc1cnn(-c2ccc(NC(=O)Cc3ccccc3Cl)cc2S(N)(=O)=O)c1` [Example 256, 2-(2-Chlorophenyl)-N-{4-[4-(2-methoxyethyl)-1H-pyrazol-1-yl]-3-sulfamoylphenyl}-acetamide], in that order: 83% and 130 nM.
For `NS(=O)(=O)c1cc(NC(=O)Cc2ccccc2Cl)ccc1-n1ccc(F)n1` [Example 257, 2-(2-Chlorophenyl)-N-[4-(3-fluoro-1H-pyrazol-1-yl)-3-sulfamoylphenyl]acetamide], the Emax was found to be 81% and the IC50 came out at 51 nM.
For `NS(=O)(=O)c1cc(NC(=O)Cc2ccccc2Cl)ccc1-n1cc(NCC(F)F)cn1` [Example 258, 2-(2-Chlorophenyl)-N-(4-{4-[(2,2-difluoroethyl)amino]-1H-pyrazol-1-yl}-3-sulfamoyl-phenyl)acetamide], in that order: 97% and 30 nM.
For `NS(=O)(=O)c1cc(NC(=O)Cc2ccccc2Cl)ccc1-n1cc(CC(F)F)cn1` [Example 259, 2-(2-Chlorophenyl)-N-{4-[4-(2,2-difluoroethyl)-1H-pyrazol-1-yl]-3-sulfamoylphenyl}-acetamide], in that order: 91% and 50 nM.
The like results for `NS(=O)(=O)c1cc(NC(=O)Cc2ccccc2Cl)ccc1-n1cc(CNCC(F)F)cn1` [Example 260, 2-(2-Chlorophenyl)-N-[4-(4-{[(2,2-difluoroethyl)amino]methyl}-1H-pyrazol-1-yl)-3-sulfamoylphenyl]acetamide] were, in that order, 100% and 398 nM.
As for `NS(=O)(=O)c1cc(NC(=O)Cc2ccccc2Cl)ccc1-c1noc(C(F)(F)F)n1` [Example 261, 2-(2-Chlorophenyl)-N-{3-sulfamoyl-4-[5-(trifluoromethyl)-1,2,4-oxadiazol-3-yl]phenyl}acetamide], the Emax amounted to 81% and the IC50 was determined as 111 nM.
For `Cc1cnn(-c2ccc(NC(=O)Cc3ccccc3F)cc2S(N)(=O)=O)c1` [Example 262, 2-(2-Fluorophenyl)-N-[4-(4-methyl-1H-pyrazol-1-yl)-3-sulfamoylphenyl]acetamide], in that order: 92% and 235 nM.
For `NS(=O)(=O)c1cc(NC(=O)Cc2ccccc2F)ccc1-n1cnc(C2CC2)c1` [Example 263, N-[4-(4-Cyclopropyl-1H-imidazol-1-yl)-3-sulfamoylphenyl]-2-(2-fluorophenyl)-acetamide], in that order: 96% and 337 nM.
The like results for `NS(=O)(=O)c1cc(NC(=O)Cc2ccccc2F)ccc1-n1ccc(C2CC2)n1` [Example 264, N-[4-(3-Cyclopropyl-1H-pyrazol-1-yl)-3-sulfamoylphenyl]-2-(2-fluorophenyl)-acetamide] were, in that order, 76% and 4070 nM.
On to `COCCc1cnn(-c2ccc(NC(=O)Cc3ccccc3F)cc2S(N)(=O)=O)c1` [Example 265, 2-(2-Fluorophenyl)-N-{4-[4-(2-methoxyethyl)-1H-pyrazol-1-yl]-3-sulfamoyl-phenyl}acetamide], for which the Emax was 84% and the IC50 is 352 nM.
For `NS(=O)(=O)c1cc(NC(=O)Cc2ccccc2Cl)ccc1-c1ccccc1` [Example 266, 2-(2-Chlorophenyl)-N-(2-sulfamoylbiphenyl-4-yl)acetamide], in that order: 94% and 7 nM.
For `NS(=O)(=O)c1cc(NC(=O)Cc2ccccc2Cl)ccc1-c1cnn(CC2CC2)c1` [Example 267, 2-(2-Chlorophenyl)-N-{4-[1-(cyclopropylmethyl)-1H-pyrazol-4-yl]-3-sulfamoyl-phenyl}acetamide], in that order: 98% and 2 nM.
For `COCCn1cc(-c2ccc(NC(=O)Cc3ccccc3Cl)cc2S(N)(=O)=O)cn1` [Example 268, 2-(2-Chlorophenyl)-N-{4-[1-(2-methoxyethyl)-1H-pyrazol-4-yl]-3-sulfamoylphenyl}-acetamide], in that order: 103% and 5 nM.
Turning to `NS(=O)(=O)c1cc(NC(=O)Cc2ccccc2Cl)ccc1-c1cnn(C2CCNCC2)c1` [Example 269, 2-(2-Chlorophenyl)-N-{4-[1-(piperidin-4-yl)-1H-pyrazol-4-yl]-3-sulfamoylphenyl}-acetamide], the Emax is 81% and the IC50 was determined as 1040 nM.
For `NS(=O)(=O)c1cc(NC(=O)Cc2ccccc2F)ccc1-c1cnn(C2CCNCC2)c1` [Example 270, 2-(2-Fluorophenyl)-N-{4-[1-(piperidin-4-yl)-1H-pyrazol-4-yl]-3-sulfamoylphenyl}acetamide], in that order: 51% and above 25000 nM.
For `NS(=O)(=O)c1cc(NC(=O)Cc2ccccc2Cl)ccc1-c1cnn(C2CNC2)c1` [Example 271, N-{4-[1-(Azetidin-3-yl)-1H-pyrazol-4-yl]-3-sulfamoylphenyl}-2-(2-chlorophenyl)-acetamide], in that order: 82% and 1150 nM.
For the compound `NS(=O)(=O)c1cc(NC(=O)Cc2cccc(Cl)c2)ccc1-c1ccccc1` [Example 272, 2-(3-Chlorophenyl)-N-(2-sulfamoylbiphenyl-4-yl)acetamide], the Emax was 90% and the half-inhibitory concentration (IC50) is 507 nM.
For `Cc1ccn(-c2ccc(NC(=O)Cc3ccccc3Cl)cc2S(N)(=O)=O)n1` [Example 273, 2-(2-Chlorophenyl)-N-[4-(3-methyl-1H-pyrazol-1-yl)-3-sulfamoylphenyl]acetamide], in that order: 60% and 35 nM.
For `NS(=O)(=O)c1cc(NC(=O)Cc2ccccc2Cl)ccc1-c1ccc(Cl)nc1` [Example 274, 2-(2-Chlorophenyl)-N-[4-(6-chloropyridin-3-yl)-3-sulfamoylphenyl]acetamide], in that order: 97% and 19 nM.
For `Cc1noc(C)c1-c1ccc(NC(=O)Cc2ccccc2Cl)cc1S(N)(=O)=O` [Example 275, 2-(2-Chlorophenyl)-N-[4-(3,5-dimethyl-1,2-oxazol-4-yl)-3-sulfamoylphenyl]acetamide], in that order: 82% and 507 nM.
With `CC1(Cn2cc(-c3ccc(NC(=O)Cc4ccccc4Cl)cc3S(N)(=O)=O)cn2)COC1` [Example 276, 2-(2-Chlorophenyl)-N-(4-{1-[(3-methyloxetan-3-yl)methyl]-1H-pyrazol-4-yl}-3-sulfamoylphenyl)acetamide], the Emax turned out to be 96% and the IC50 turned out to be 195 nM.
Take `COCCn1cc(-c2ccc(NC(=O)Cc3ccc(F)cc3Cl)cc2S(N)(=O)=O)cn1` [Example 277, 2-(2-Chloro-4-fluorophenyl)-N-{4-[1-(2-methoxyethyl)-1H-pyrazol-4-yl]-3-sulfamoyl-phenyl}acetamide]: the Emax amounted to 90% and the IC50 came to 186 nM.
For `NS(=O)(=O)c1cc(NC(=O)Cc2ccc(F)cc2Cl)ccc1-c1cnn(C2CC2)c1` [Example 278, 2-(2-Chloro-4-fluorophenyl)-N-[4-(1-cyclopropyl-1H-pyrazol-4-yl)-3-sulfamoyl-phenyl]acetamide], in that order: 102% and 93 nM.

The values are drawn from patent publication US11524938B2, “Aromatic sulfonamide derivatives” (Bayer Pharma Aktiengesellschaft, priority 2016, dated 2022).
